Assay results from patent US12389910B2, “Beta-lactams and their use as herbicides” (BASF SE, priority 2020, dated 2025).

Columns and labels:
[1] = test system: SETFA; test: greenhouse herbicidal activity, pre-emergence treatment; format: in vivo, Setaria faberi; settings: pre-emergence method, scale 0 to 100
Excerpt: (§1) The culture containers used were plastic flowerpots containing loamy sand with approximately 3.0% of humus as the substrate. The seeds of the test plants were sown separately for each species.
(§2) For the pre-emergence treatment, the active ingredients, which had been suspended or emulsified in water, were applied directly after sowing by means of finely distributing nozzles. The containers were irrigated gently to promote germination and growth and subsequently covered with transparent plastic hoods until the test plants had rooted. This cover caused uniform germination of the test plants, unless this had been impaired by the active ingredients. For the post-emergence treatment, the test plants were first grown to a height of 3 to 15 cm, depending on the plant habit, and only then treated with the active ingredients which had been suspended or emulsified in water. For this purpose, the test plants were either sown directly and grown in the same containers, or they were first grown separately as seedlings and transplanted into the test containers a few days prior to treatment.
(§3) Depending on the species, the test plants were kept at 10-25° C. or 20-35° C., respectively. The test period extended over 2 to 4 weeks. During this time, the test plants were tended, and their response to the individual treatments was evaluated.
(§4) Evaluation was carried out using a scale from 0 to 100. […]

[2] = test system: ECHCG; test: as above; format: in vivo, Echinocloa crus-galli; settings: pre-emergence method, application rate 0,250 kg/ha; scale 0 to 100
Excerpt: as §1, §2, §3, §4

[3] = test system: ECHCG; test: greenhouse herbicidal activity, post-emergence treatment; format: in vivo, Echinocloa crus-galli; settings: post-emergence method, scale 0 to 100
Excerpt: as §1, §2, §3, §4

[4] = test system: AVEFA; test: as above; format: in vivo, Avena fatua; settings: post-emergence method, scale 0 to 100
Excerpt: as §1, §2, §3
Evaluation was carried out using a scale from 0 to 100. 100 means no emergence of the test plants, or complete destruction of at least the aerial moieties, and 0 means no damage, or normal course of growth. A good herbicidal activity is given at values of 80 to 90 and a very good herbicidal activity is given at values of 90 to 100.
The test plants used in the greenhouse experiments were of the following species: Bayer code Scientific name

[5] = test system: APESV; test: greenhouse herbicidal activity, pre-emergence treatment; format: in vivo, Apera spica-venti; settings: pre-emergence method, application rate 1,000 kg/ha; scale 0 to 100
Excerpt: as §1, §2, §3, §4

[6] = test system: AMARE; test: as above; format: in vivo, Amaranthus retroflexus; settings: pre-emergence method, application rate 0,500 kg/ha; scale 0 to 100
Excerpt: as §1, §2, §3, §4

[7] = test system: AMARE; test: greenhouse herbicidal activity, post-emergence treatment; format: in vivo, Amaranthus retroflexus; settings: post-emergence method, application rate 0,250 kg/ha; scale 0 to 100
Excerpt: as §1, §2, §3, §4

[8] = test system: ABUTH; test: as above; format: in vivo, Abutilon theophrasti; settings: post-emergence method, scale 0 to 100
Excerpt: as §1, §2, §3, §4

[9] = test system: ALOMY; test: as above; format: in vivo, Alopercurus myosuroides; settings: post-emergence method, scale 0 to 100
Excerpt: as §1, §2, §3, §4

[10] = test system: SETFA; test: as above; format: in vivo, Setaria faberi; settings: post-emergence method, application rate 62.5 g/ha; scale 0 to 100
Excerpt: as §1, §2, §3, §4

[11] = test system: SETVI; test: as above; format: in vivo, Setaria viridis; settings: post-emergence method, application rate 16.0 g/ha; scale 0 to 100
Excerpt: as §1, §2, §3, §4

[12] = test system: LOLMU; test: as above; format: in vivo; settings: post-emergence method, application rate 16.0 g/ha; scale 0 to 100
Excerpt: as §1, §2, §3, §4

[13] = test system: ABUTH; test: greenhouse herbicidal activity, pre-emergence treatment; format: in vivo, Abutilon theophrasti; settings: pre-emergence method, application rate 0,250 kg/ha; scale 0 to 100
Excerpt: as §1, §2, §3, §4

COC(=O)[C@@H]1C=C[C@H](NC(=O)C2(C)CN(c3cc(C)cc(F)c3)C2=O)C1 (relative stereo) [compound 141]
herbicidal activity against SETFA ([1]; application rate 0,250 kg/ha): good (A good herbicidal activity is given at values of 80 to 90) | herbicidal activity against ECHCG [2]: good (A good herbicidal activity is given at values of 80 to 90) | herbicidal activity against ECHCG ([3]; application rate 0,250 kg/ha): good (A good herbicidal activity is given at values of 80 to 90)

COC(=O)[C@@H]1C=C[C@H](NC(=O)C2(C)CN(c3cccc(OC(F)(F)C(F)F)c3)C2=O)C1 (relative stereo) [compound 146]
herbicidal activity against AVEFA ([4]; application rate 0,250 kg/ha): good (A good herbicidal activity is given at values of 80 to 90)

COC(=O)CC(C)NC(=O)C1(C)CN(c2cc(Cl)cc(Cl)c2)C1=O (stereo not shown) [compound 11]
herbicidal activity against APESV [5]: very good (a very good herbicidal activity is given at values of 90 to 100) | herbicidal activity against SETFA ([1]; application rate 1,000 kg/ha): very good (a very good herbicidal activity is given at values of 90 to 100) | herbicidal activity against ECHCG ([3]; application rate 1,000 kg/ha): very good (a very good herbicidal activity is given at values of 90 to 100)

CCOC(=O)CC(C)NC(=O)C1(OC)CN(c2cc(Cl)cc(Cl)c2)C1=O (stereo not shown) [compound 13]
herbicidal activity against AMARE [6]: good (A good herbicidal activity is given at values of 80 to 90)

CCC1(C(=O)NC(C)CC(=O)OC)CN(c2cc(Cl)cc(Cl)c2)C1=O (stereo not shown) [compound 125]
herbicidal activity against AMARE [7]: good (A good herbicidal activity is given at values of 80 to 90)

COC(=O)CC(C)NC(=O)C1CN(c2cc(Cl)cc(Cl)c2)C1=O (stereo not shown) [compound 131]
herbicidal activity against ABUTH ([8]; application rate 1,000 kg/ha): very good (a very good herbicidal activity is given at values of 90 to 100)

CC1(C(=O)NC2C=CC(C(=O)O)C2)CN(c2cc(F)cc(F)c2)C1=O (stereo not shown) [compound 133]
herbicidal activity against ALOMY ([9]; application rate 62.5 g/ha): good (A good herbicidal activity is given at values of 80 to 90) | herbicidal activity against AVEFA ([4]; application rate 62.5 g/ha): very good (a very good herbicidal activity is given at values of 90 to 100) | herbicidal activity against SETFA [10]: very good (a very good herbicidal activity is given at values of 90 to 100)

COC(=O)C1C=CC(NC(=O)C2(C)CN(c3cccc(Cl)c3)C2=O)C1 (stereo not shown) [compound 136]
herbicidal activity against SETVI [11]: very good (a very good herbicidal activity is given at values of 90 to 100) | herbicidal activity against AVEFA ([4]; application rate 16.0 g/ha): very good (a very good herbicidal activity is given at values of 90 to 100) | herbicidal activity against LOLMU [12]: very good (a very good herbicidal activity is given at values of 90 to 100)

COC(=O)CC(C)NC(=O)C1(C)CN(c2cc(C)cc(F)c2)C1=O (stereo not shown) [compound 142]
herbicidal activity against ABUTH [13]: good (A good herbicidal activity is given at values of 80 to 90) | herbicidal activity against ALOMY ([9]; application rate 0,250 kg/ha): good (A good herbicidal activity is given at values of 80 to 90)

COC(=O)C1C=CC(NC(=O)C2(C)CN(c3ccc(F)c(C#N)c3)C2=O)C1 (stereo not shown) [compound 147]
herbicidal activity against ABUTH ([8]; application rate 0,250 kg/ha): very good (a very good herbicidal activity is given at values of 90 to 100)
